According to PubChem BioAssay AID1996:
Converted amounts (≈) assume the structure as drawn.

Conditions: buffer; pH 7.4; 200.0 µM

Compound | solubility kinetic [µg/mL]
Cc1cc(C)c(OCCN(C)C)c(Cl)c1.O=C(O)C(=O)O | > 47.7
O=C(O)c1cncc(C#Cc2ccccc2)c1 | > 33.5
Cc1ccnc(N2CCC(C(=O)NNC(=O)c3ccncc3)CC2)n1 | > 51.1
Cc1cc(NC(=O)c2ccc(NC(=O)C3CC3)cc2)no1 | 8.8 (≈ 30.8 µM)
Cc1cccc(NC(=S)NC2CCCC2)c1C | 34.1 (≈ 137 µM)
CC(C)(C)c1ccc(C(=O)O/N=C(\N)c2ccccc2)cc1 | 1.1 (≈ 3.71 µM)
CN(CC(=O)OCC(=O)NC1CCCC1)S(=O)(=O)c1ccc(Cl)cc1 | > 58.3
CC(C)c1cc(C(C)C)c(S(=O)(=O)N2CCNCC2)c(C(C)C)c1 | 39.3 (≈ 111 µM)
Cc1[nH]c(=O)[nH]c(=O)c1S(=O)(=O)Nc1ccc(F)cc1F | > 47.6
O=C(c1ccncc1)N1CCN(S(=O)(=O)c2ccccc2F)CC1 | > 52.4
COc1ccccc1OCCCn1cc(C(C)=O)c2ccccc21 | 25.8 (≈ 79.8 µM)
CC1CCC(NC(=O)c2cc3ccccc3cc2O)CC1 (stereo not given) | 4.3 (≈ 15.2 µM)
COc1ccc(C(=S)N2CCCC2)cc1Br | > 45
CNC(=O)COC(=O)CCC(=O)c1cccs1 | 31.6 (≈ 124 µM)
S=C(Nc1ccc2nccnc2c1)N1CCCC1 | > 38.8
O=C(OCC(=O)N1CCCC1)c1ccc(Cl)c([N+](=O)[O-])c1 | 31.8 (≈ 102 µM)
CN(C)CCSC1c2ccccc2CSc2ccccc21.Cl (stereo not given) | 51.6
O=C(NCCCCc1ccccc1)Nc1ccc(F)cc1 | 2.3 (≈ 8.03 µM)
Cc1cccc(C)c1NC(=S)N1CCCN(C)CC1 | > 41.6
CC(C)(C)C(=O)Nc1cc2c3c(c1)CC(=O)N3CCC2 | 35.9 (≈ 132 µM)
CC(C)c1ccc[n+](-c2nc([O-])sc2C=O)c1 | 27.4 (≈ 110 µM)
Cc1ccc(S(=O)(=O)NCCCN2CCCC2)cc1 | > 42.4
O=[N+]([O-])c1ccc(S(=O)(=O)Nc2ccc3c(c2)OCCO3)cc1 | 45.2 (≈ 134 µM)
C#CC(CC)(CC)NC(=O)/C=C/C(=O)O | 27.7 (≈ 132 µM)
S=C(NCc1ccco1)NCC1CCCO1 (stereo not given) | 34.8 (≈ 145 µM)
O=C(NCc1ccco1)C(=O)N1CCCC1 | > 33.3

Continued, values first:

solubility kinetic [µg/mL] | Compound
> 45.3 | CCOC(=O)c1ccc(NC(=O)NCCc2cnc[nH]2)cc1
52.1 (≈ 143 µM) | COc1ccc(S(=O)(=O)N2CCN(c3ccccn3)CC2)c(OC)c1
6.4 (≈ 13.6 µM) | NS(=O)(=O)c1cccc(NC(=O)CSc2nc3ccccc3c(=O)n2Cc2ccco2)c1
16.5 (≈ 31.2 µM) | Cc1ccc(S(=O)(=O)N2CCN(C(=O)COC(=O)CNC(=O)c3ccc(C(C)(C)C)cc3)CC2)c(C)c1
0.9 (≈ 2.82 µM) | CC(C)c1ccc(-c2c(NCCc3ccccc3)c(=O)c2=O)cc1
> 46.7 | COc1cc2nc(CCc3ccccc3)oc(=O)c2cc1OC
35.2 (≈ 116 µM) | COc1ccc(C2SCC(=O)N2c2ccc(F)cc2)cc1 (stereo not given)
> 51.8 | COc1ccc2oc(C(=O)OCC(=O)N3CCCCC3C)c(C)c2c1 (stereo not given)
> 59.3 | O=C(CN1C(=O)NC2(CCCc3ccccc32)C1=O)NCCc1ccc(F)cc1 (stereo not given)
< 0.1 | CC(C)CNc1nc(N)c([N+](=O)[O-])c(NCc2ccccc2)n1
1.1 (≈ 3.33 µM) | COC(=O)c1[nH]c2ccccc2c1NC(=O)c1c(F)cccc1F
2.7 (≈ 7.98 µM) | Cc1ccc2cc(COC(=O)c3cccc([N+](=O)[O-])c3)c(=O)[nH]c2c1
22.1 (≈ 63.8 µM) | COc1ccc(OC)c(/C=C2\SC(N3CCCC(C)C3)=NC2=O)c1 (stereo not given)
26.5 (≈ 87.6 µM) | CCc1ccc(/C=C2/SC(N3CCOCC3)=NC2=O)cc1
> 45.3 | CCN(CC(=O)Nc1cccc(OC)c1)C(=O)c1ccco1
46.3 (≈ 148 µM) | O=C(O)c1[nH]c2ccccc2c1C=NCc1ccccc1Cl
> 37.7 | O=C(O)C1CC(=O)N(CCc2ccc(F)cc2)C1 (stereo not given)

solubility kinetic [µg/mL] | Compound
< 0.5 | COc1ccc(-c2nc3ccccc3o2)cc1OC
> 43.8 | COc1cc(NC(=O)c2cc(C)no2)cc(OC)c1OC
> 46.7 | CCN1C(=O)CC(NCc2ccc(S(N)(=O)=O)cc2)C1=O (stereo not given)
> 55.3 | CCCCN(C)CCNC(=O)c1cn(C)c(=O)c2c1c1ccccc1n2C
48.7 (≈ 146 µM) | COc1ccc(NC(=O)CSCCc2ccccn2)cc1OC
6.9 (≈ 15.3 µM) | COc1ccccc1N(CC(=O)Nc1ccc(C)cc1Cl)S(=O)(=O)c1cccs1
> 44.6 | COc1ccc(CCC(C)NCC(C)c2ccccc2)cc1 (stereo not given)
> 44.8 | COc1ccc(CNc2c(CO)cnc3c2cnn3C)cc1
45.5 (≈ 135 µM) | CCOc1cc(C#N)ccc1OCC(=O)N1CCc2ccccc2C1
18.2 (≈ 53.3 µM) | Cc1cccc(C)c1NC(=O)CNC(=O)Cc1ccccc1[N+](=O)[O-]
< 0.6 | CCOc1cccc(C(=O)Nc2ccc3ccccc3c2)c1
> 45 | CC(OC(=O)c1cc[n+]([O-])cc1)C(=O)NCc1ccccc1 (stereo not given)
0.8 (≈ 3.16 µM) | CC(=O)c1sc(-c2ccc(F)cc2F)nc1C
> 52 | CC(NC(=O)COc1ccccc1)C(=O)NCc1ccccc1Cl (stereo not given)
< 0.8 | COc1ccccc1OCCCOc1cccc(/C=C2\SC(=O)NC2=O)c1
3.1 (≈ 6.84 µM) | COc1ccc(CNC(=O)c2cc(S(=O)(=O)N3CCCCC3)ccc2Cl)cc1OC
30.7 | Cc1ccc(OCC(O)CN2CCc3ccccc3C2)c(C)c1.Cl (stereo not given)
